Laboratory results published in patent US11535630B2, “Apelin receptor (APJ) agonists and uses thereof” (Research Triangle Institute, priority 2015, dated 2022).

Target: T1, apelin receptor (APJ) (Homo sapiens, UniProt P35414)
T1 sequence (P35414 1-380): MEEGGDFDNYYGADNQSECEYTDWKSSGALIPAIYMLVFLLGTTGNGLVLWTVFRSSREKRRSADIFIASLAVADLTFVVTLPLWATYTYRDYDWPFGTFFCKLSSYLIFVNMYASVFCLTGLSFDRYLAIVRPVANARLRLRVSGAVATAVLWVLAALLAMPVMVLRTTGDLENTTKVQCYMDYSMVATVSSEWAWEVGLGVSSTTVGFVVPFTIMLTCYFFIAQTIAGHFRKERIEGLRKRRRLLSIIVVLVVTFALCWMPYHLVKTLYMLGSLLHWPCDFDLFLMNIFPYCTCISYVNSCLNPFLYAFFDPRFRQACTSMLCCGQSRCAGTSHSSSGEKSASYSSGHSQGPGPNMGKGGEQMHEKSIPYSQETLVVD
Assay: In vitro apelin agonist activity (methods of Giddings et al., Apelin-13 as positive control)
Assay type: cell-based
Details: EC50 (nM) Ave, in vitro apelin agonist activity, methods of Giddings et al., Apelin-13 as positive control
Text: Characterization of the Apelin Agonist Activity of the Compounds
1:39-47, the contents of which are hereby incorporated by reference in its entirety. Using the methods described in Giddings et al. and Apelin-13 as a positive control.

Structure (SMILES)	EC50 [nM]
O=C(C[C@H](CCN1CCCC[C@H]1C(F)(F)F)NC(=O)c1cc(-c2ccccc2C(F)(F)F)n(C2CCCC2)n1)NC1CCC1 [compound 496, (3S)-N-cyclobutyl-3-({1-cyclopentyl-5-[2-(trifluoromethyl)phenyl]-1H-pyrazol-3-yl}formamido)-5-[(2S)-2-(trifluoromethyl)piperidin-1-yl]pentanamide]	30
O=C(O)C[C@H](CCN1CC(F)(F)C(F)(F)C(F)(F)C1)NC(=O)c1cc(-c2ccccc2C(F)(F)F)n(C2CCCC2)n1 [compound 566, (3S)-3-({1-cyclopentyl-5-[2-(trifluoromethyl)phenyl]-1H-pyrazol-3-yl}formamido)-5-(3,3,4,4,5,5-hexafluoropiperidin-1-yl)pentanoic acid]	3050

Same assay, conditions: in vitro apelin agonist activity, methods of Giddings et al., Apelin-13 as positive control; read-out: EC50 (nM) Ave

EC50 [nM]	Structure (SMILES)
23	O=C(C[C@H](CCN1CCCC(F)(F)C1)NC(=O)c1cc(-c2cnccc2C(F)(F)F)n(C2CCCC2)n1)NC1CCC1 [compound 460, (3S)-N-cyclobutyl-3-(f 1-cyclopentyl-544-(trifluoromethyppyridin-3-yl1-1H-pyrazol-3-yl}formamido)-5-(3,3-difluoropiperidin-1-yl)pentanamide]
10.9	O=C(C[C@H](CCN1CCCC(F)(F)C1)NC(=O)c1cc(-c2ccccc2C(F)(F)F)n(C2CCCC2)n1)NC1CCC1 [compound 425, (3S)-N-cyclobutyl-3-({1-cyclopentyl-5-[2-(trifluoromethyl)phenyl]-1H-pyrazol-3-yl}formamido)-5-(3,3-difluoropiperidin-1-yl)pentanamide]
22	CCc1ccccc1-c1cc(C(=O)N[C@@H](CCN2CCCCC2)CC(=O)Nc2nccs2)nn1C1CCCC1 [compound 406, (3S)-3-{[1-cyclopentyl-5-(2-ethylphenyl)-1H-pyrazol-3-yl]formamido}-5-(piperidin-1-yl)-N-(1,3-thiazol-2-yl)pentanamide]
1370	C[C@@H](C[C@@H](CC(=O)O)NC(=O)c1cc(-c2ccccc2C(F)(F)F)n(C2CCCC2)n1)N1CCCC(F)(F)C1 [compound 576, (3S,5S)-3-({1-cyclopentyl-5-[2-(trifluoromethyl)phenyl]-1H-pyrazol-3-yl}formamido)-5-(3,3-difluoropiperidin-1-yl)hexanoic acid]
165	CN(C(=O)C[C@H](CCN1CCOCC1)NC(=O)c1cc(-c2ccccc2C(F)(F)F)n(C2CCCC2)n1)c1nccs1 [compound 495, (3S)-3-({1-cyclopentyl-5-[2-(trifluoromethyl)phenyl]-1H-pyrazol-3-yl}formamido)-N-methyl-5-(morpholin-4-yl)-N-(1,3-thiazol-2-yl)pentanamide]
46	CC(F)(F)c1ccccc1-c1cc(C(=O)N[C@@H](CCN2CCCCC2)CC(=O)NC2CCC2)nn1C1CCCC1 [compound 400, (3S)-N-cyclobutyl-3-({1-cyclopentyl-5-(2-(1,1-difluoroethyl)phenyl]-1H-pyrazol-3-yl]formamido)-5-(piperidin-1-yl)pentanamide]
822	CN(C[C@@H](CC(=O)O)NC(=O)c1cc(-c2ccccc2C(F)(F)F)n(C2CCCC2)n1)C1CCCCC1 [compound 533, (3R)-4-[cyclohexyl(methy)amino1]-3-({1-cyclopentyl-5-[2-(trifluoromethyl)phenyl]-1H-pyrazol-3-yl}formamido)butanoic acid]
8720	COc1cccc(OC)c1-c1cc(C(=O)N[C@@H](CCc2ccccc2)C(=O)NCc2nnn[nH]2)nn1C1CCCC1 [compound 387, (2S)-2-{[1-cyclopentyl-5-(2,6-dimethoxyphenyl)-1H-pyrazol-3-yl]formamido}-4-phenyl-N-(1H-1,2,3,4-tetrazol-5-ylmethyl)butanamide]
647	COc1cccc(OC)c1-c1cc(C(=O)N[C@@H](CCc2ccccc2)CC(=O)Nc2nnn[nH]2)nn1C1CCCC1 [compound 381, (3S)-3-{[1-cyclopentyl-5-(2,6-dimethoxyphenyl)-1H-pyrazol-3-yl]formamido}-5-phenyl-N-(1H-1,2,3,4-tetrazol-5-yl)pentanamide]
> 10000	O=C(N[C@@H]1CC(=O)N(c2ccc(F)cc2)C1=O)c1cc(-c2ccccc2C(F)(F)F)n(C2CCCC2)n1 [compound 563, 1-cyclopentyl-N-[(3R)-1-(4-fluorophenyl)-2,5-dioxopyrrolidin-3-yl]-5-[2-(trifluoromethyl)phenyl]-1H-pyrazole-3-carboxamide]
> 10000	COc1cccc(OC)c1-c1cc(C(=O)N[C@@H](CCNCc2ccncc2)CC(=O)OC(C)(C)C)nn1C1CCCC1 [compound 306, tert-butyl (3S)-3-{[1-cyclopentyl-5-(2,6-dimethoxyphenyl)-1H-pyrazol-3-yl]formamido}-5-[(pyridin-4-ylmethyl)amino]pentanoate]
> 10000	CCC(CC)n1nc(C(=O)N[C@@H](CCN2CCCCC2)CC(=O)NC2CCC2)cc1-c1c(OC)cccc1OC [compound 357, (3S)-N-cyclobutyl-3-{[5-(2,6-dimethoxyphenyl)-1-(pentan-3-yl)-1H-pyrazol-3-yl]formamido}-5-(piperidin-1-yl)pentanamide]
2910	COc1cccc(OC)c1-c1cc(C(=O)N[C@@H](CCc2ccccc2)CC(=O)O)nn1-c1ccc(F)cc1 [compound 299, (3S)-3-{[5-(2,6-dimethoxyphenyl)-1-(4-fluorophenyl)-1H-pyrazol-3-yl]formamido}-5-phenylpentanoic acid]
343	COc1cccc(OC)c1-c1cc(C(=O)N[C@@H](CCN2CCOCC2)CC(=O)NC2CCC2)nn1C1CCCC1 [compound 312, (3S)-N-cyclobutyl-3-{[1-cyclopentyl-5-(2,6-dimethoxyphenyl)-1H-pyrazol-3-yl]formamido}-5-(morpholin-4-yl)pentanamide]
376	CSc1ccccc1-c1cc(C(=O)N[C@@H](CCN2CCCCC2)CC(=O)NC2CCC2)nn1C1CCCC1 [compound 360, (3S)-N-cyclobutyl-3-({1-cyclopentyl-5-[2-(methylsulfanyl)phenyl]-1H-pyrazol-3-yl]formamido)-5-(piperidin-1-yl)pentanamide]
> 10000	COc1cccc(OC)c1-c1cc(C(=O)N[C@@H](/C=C/c2ccncc2)CC(=O)NC2CCC2)nn1C1CCCC1 [compound 419, (3R,4E)-N-cyclobutyl-3-{[1-cyclopentyl-5-(2,6-dimethoxyphenyl)-1H-pyrazol-3-yl]formamido}-5-(pyridin-4-yl)pent-4-enamide]
84	CN(C(=O)C[C@H](CCN1CCCC(F)(F)C1)NC(=O)c1cc(-c2ccccc2Cl)n(C2CCCC2)n1)c1nccs1 [compound 447, (3S)-3-{[5-(2-chlorophenyl)-1-cyclopentyl-1H-pyrazol-3-yl]formamido}-5-(3,3-difluoropiperidin-1-yl)-N-methyl-N-(1,3-thiazol-2-yl)pentanamide]
> 10000	COc1cccc(OC)c1-c1cc(C(=O)N[C@@H](CC2CCC2)C(=O)NC2CCC2)nn1C1CCCC1 [compound 377, (2S)-N,3-dicyclobutyl-2-{[1-cyclopentyl-5-(2,6-dimethoxyphenyl)-1H-pyrazol-3-yl]formamido}propanamide]
75	O=C(O)C[C@H](CCN1C[C@@H](F)[C@H](F)C1)NC(=O)c1cc(-c2ccccc2C(F)(F)F)n(C2CCCC2)n1 [compound 631, (3S)-3-({1-cyclopentyl-5-[2-(trifluoromethyl)phenyl]-1H-pyrazol-3-yl}formamido)-5-[(3R,4R)-3,4-difluoropyrrolidin-1-yl]pentanoic acid]
399	COc1cccc(OC)c1-c1cc(C(=O)N[C@@H](CCc2ccccc2)C(=O)NCc2nccs2)nn1C1CCCC1 [compound 388, (2S)-2-{[1-cyclopentyl-5-(2,6-dimethoxyphenyl)-1H-pyrazol-3-yl]formamido}-4-phenyl-N-(1,3-thiazol-2-ylmethyl)butanamide]
> 10000	COc1cccc(OC)c1-c1cc(C(=O)N[C@@H](CC2CC2)C(=O)NC2CCC2)nn1C1CCCC1 [compound 376, (2S)-N-cyclobutyl-2-{[1-cyclopentyl-5-(2,6-dimethoxyphenyl)-1H-pyrazol-3-yl]formamido}-3-cyclopropylpropanamide]
> 10000	CCN(C(=O)c1cc(-c2cccs2)n(C2CCCC2)n1)[C@@H](CCN1CCCCC1)CC(=O)NC1CCC1 [compound 347]
1380	NS(=O)(=O)C[C@H](CC(=O)N1CCCC(F)(F)C1)NC(=O)c1cc(-c2ccccc2C(F)(F)F)n(C2CCCC2)n1 [compound 540, 1-cyclopentyl-N-[(2S)-4-(3,3-difluoropiperidin-1-yl)-4-oxo-1-sulfamoylbutan-2-yl]-5-[2-(trifluoromethyl)phenyl]-1H-pyrazole-3-carboxamide]
16	CC(F)(F)c1ccccc1-c1cc(C(=O)N[C@@H](CCN2CCCC(F)(F)C2)CC(=O)O)nn1C1CCCC1 [compound 432, (3S)-3-({1-cyclopentyl-5-[2-(1,1-difluoroethyl)phenyl]-1H-pyrazol-3-yl}formamido)-5-(3,3-difluoropiperidin-1-yl)pentanoic acid]

Structure (SMILES)	EC50 [nM]
CC(C)C[C@H](NC(=O)c1cc(-c2ccccc2C(F)(F)F)n(C2CCCC2)n1)C(=O)O [compound 527, (2S)-2-({1-cyclopentyl-5-[2-(trifluoromethyl)phenyl]-1H-pyrazol-3-yl}formamido)-4-methylpentanoic acid]	> 10000
